Test results: patent US9181243B2, “Solvate form M of trametinib dimethyl sulfoxide and methods of making and using thereof” (HANGZHOU PUSHAI PHARMACEUTICAL TECHNOLOGY CO., LTD., priority 2014, dated 2015)
Where two headings read alike, the source gives them in different places.

How the values were obtained:
[1] = Storage stability of crystalline form followed by XRPD; conditions: 44% RH, room temperature, 9 months
[2] = volume distribution
Method: Typical particle size distribution (PSD) is measured using a laser diffraction particle size analyzer, namely Microtrac FLEX 53500. The most common approach for defining the distribution is to report the D10, D50, and D90 values based on a volume distribution. The D50, the median, has been defined above as the diameter where half of the population lies below this value. Similarly, 90 percent of the distribution lies below the D90, and 10 percent of the population lies below the D10.

[3] = Isothermal sorption (hygroscopicity); conditions: between 20-80% RH (relative humidity)
Method: Isothermal sorption was performed by TA Instruments Q5000 TGA. The control software is Thermal Advantage and the analysis software is Universal Analysis. Usually 1 to 10 mg of the specimen was placed in the platinum pan. The weight changes of the sample from 20% to 80% to 20% relative humidity were recorded by the TA software and the isothermal sorption plot was obtained by the analysis software.

[4] = test system: advanced melanoma with BRAF V600E/K mutations; conditions: versus traditional chemotherapy drugs; cited from earlier work

For `CC(=O)Nc1cccc(-n2c(=O)n(C3CC3)c(=O)c3c(Nc4ccc(I)cc4F)n(C)c(=O)c(C)c32)c1` [Form M], the “crystalline form change on storage (XRPD pattern)” value (“crystalline form change on storage” for short) [1] was “no signs of form change”, the D10 ([2]; listed as Example 8) was 18 μm and the D50 ([2]; listed as Example 8) was 40 μm. It also gave a D90 ([2]; listed as Example 8) of 85 μm, a D10 ([2]; listed as Example 9) of 9 μm and a D50 ([2]; listed as Example 9) of 24 μm. The D90 ([2]; listed as Example 9) was 72 μm and the “weight change in isothermal sorption” value [3] was “about 1.07%”.

For `CC(=O)Nc1cccc(-n2c(=O)n(C3CC3)c(=O)c3c(Nc4ccc(I)cc4F)n(C)c(=O)c(C)c32)c1.C[S+](C)[O-]` [Reference Example 1, Trametinib dimethyl sulfoxide solvate, reference compound], the “crystalline form change on storage” value ([1]; listed as trametinib dimethyl sulfoxide solvate obtained by the conventional methods) was “its patterns changed”, the “crystalline form change on storage” value ([1]; listed as trametinib dimethyl sulfoxide solvates obtained by conventional methods) was “changed its XRD pattern” and the D10 [2] was 3 μm. For the same compound, the D50 [2] was 8 μm and the D90 [2] was 36 μm.

In the case of `CC(=O)Nc1cccc(-n2c(=O)n(C3CC3)c(=O)c3c(Nc4ccc(I)cc4F)n(C)c(=O)c(C)c32)c1` [trametinib, N-{3-[3-cyclopropyl-5-(2-fluoro-4-iodo-phenylamino)-3,4,6,7-tetrahydro-6,8-dimethyl-2,4,7-trioxo-pyrido[4,3-d]pyrimidin-1(2H)-yl]phenyl}acetamide], the therapeutic effect [4] is listed as “significantly better than traditional chemotherapy drugs”.
